Numbered stars: 1 amine (or outer) side, 2 acyl side, 3 side chain; on linkers, the order of the positions; unused ones are H or OH. Side chains are listed from the residue outwards. Peptide text beside a SMILES is read from it. * marks the point of attachment. C18 diacid = O=C(O)CCCCCCCCCCCCCCCCC(=O)*; C16 diacid = O=C(O)CCCCCCCCCCCCCCC(=O)*; γGlu = O=C(O)[C@H](CCC(=O)[*:2])N[*:1]; AEEA = NCCOCCOCC(=O)O
Tests used:
[1] = Assay (X) Chemical stability assessment by RP-UPLC; assay type: physicochemical; details: pH 8.15, 14 days at 37° C. vs 5° C., 333 μM
glucagon receptor = molecular target: T1, glucagon receptor (Homo sapiens, UniProt P47871); assay: Assay (I) Glucagon activity (cAMP biosensor, FLIPR); assay type: cell-based
T1 construct: expressed in transfected cells
T1 sequence (P47871 26-477): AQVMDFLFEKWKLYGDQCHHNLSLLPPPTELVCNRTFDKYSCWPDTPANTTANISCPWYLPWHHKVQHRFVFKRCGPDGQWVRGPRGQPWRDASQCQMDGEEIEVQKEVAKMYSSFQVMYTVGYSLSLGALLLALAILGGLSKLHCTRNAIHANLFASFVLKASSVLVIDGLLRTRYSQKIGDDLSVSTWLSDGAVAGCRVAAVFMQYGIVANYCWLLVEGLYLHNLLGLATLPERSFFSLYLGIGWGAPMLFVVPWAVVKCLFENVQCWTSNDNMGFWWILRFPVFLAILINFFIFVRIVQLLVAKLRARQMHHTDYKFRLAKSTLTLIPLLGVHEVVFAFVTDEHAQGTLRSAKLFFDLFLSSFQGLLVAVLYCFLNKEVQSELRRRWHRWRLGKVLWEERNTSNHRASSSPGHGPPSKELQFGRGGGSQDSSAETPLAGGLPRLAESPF

| SMILES | Chemical stability [Purity loss/14 days 37 C.] [1] [%] | EC50 (glucagon receptor) [nM] |
| --- | --- | --- |
| CC(C)C[C@H](NC(=O)[C@H](Cc1c[nH]c2ccccc12)NC(=O)[C@H](CCCCNC(=O)CC[C@H](NC(=O)CC[C@H](NC(=O)COCCOCCNC(=O)COCCOCCNC(=O)CC[C@H](NC(=O)CCCCCCCCCCCCCCC(=O)O)C(=O)O)C(=O)O)C(=O)O)NC(=O)[C@@H](NC(=O)[C@H](Cc1ccccc1)NC(=O)[C@H](CC(=O)O)NC(=O)[C@H](CCC(N)=O)NC(=O)[C@H](C)NC(=O)[C@H](CCCNC(=N)N)NC(=O)[C@H](CCCNC(=N)N)NC(=O)[C@@H](NC(=O)[C@H](CC(=O)O)NC(=O)[C@H](CC(C)C)NC(=O)[C@H](Cc1ccc(O)cc1)NC(=O)[C@H](CCCCN)NC(=O)[C@H](CO)NC(=O)[C@H](Cc1ccc(O)cc1)NC(=O)[C@H](CC(=O)O)NC(=O)[C@H](CO)NC(=O)[C@@H](NC(=O)[C@H](Cc1ccccc1)NC(=O)[C@@H](NC(=O)CNC(=O)[C@H](CCC(N)=O)NC(=O)[C@H](CO)NC(=O)[C@@H](N)Cc1c[nH]cn1)[C@@H](C)O)[C@@H](C)O)C(C)C)C(C)C)C(=O)N[C@@H](CC(C)C)C(=O)N[C@@H](CO)C(=O)N[C@H](C(=O)O)[C@@H](C)O [Example 95, N^ε24-[(4S)-4-carboxy-4-[[(4S)-4-carboxy-4-[[2-[2-[2-[[2-[2-[2-[[(4S)-4-carboxy-4-(15-carboxypentadecanoylamino)butanoyl]amino]ethoxy]ethoxy]acetyl]amino]ethoxy]ethoxy]acetyl]amino]butanoyl]amino]butanoyl]-[Val16,Lys24,Leu27,Ser28]-Glucagon] (H-HSQGTFTSDYSKYLDVRRAQDFVK([γGlu-γGlu-AEEA-AEEA-γGlu-C16 diacid])WLLST-OH; N-terminus and C-terminus assumed) | 5.1 | 0.009 |
| CC(C)C[C@H](NC(=O)[C@H](Cc1ccc(O)cc1)NC(=O)[C@H](CCCCN)NC(=O)[C@H](CO)NC(=O)[C@H](Cc1ccc(O)cc1)NC(=O)[C@H](CC(=O)O)NC(=O)[C@H](CO)NC(=O)[C@@H](NC(=O)[C@H](Cc1ccccc1)NC(=O)[C@@H](NC(=O)CNC(=O)[C@H](CCC(N)=O)NC(=O)[C@H](CO)NC(=O)[C@@H](N)Cc1c[nH]cn1)[C@@H](C)O)[C@@H](C)O)C(=O)N[C@@H](CC(=O)O)C(=O)N[C@@H](CCC(=O)O)C(=O)N[C@@H](CCCNC(=N)N)C(=O)N[C@@H](CCCNC(=N)N)C(=O)N[C@@H](C)C(=O)N[C@@H](CCC(N)=O)C(=O)N[C@@H](CC(=O)O)C(=O)N[C@@H](Cc1ccccc1)C(=O)N[C@H](C(=O)N[C@@H](CCCCNC(=O)CC[C@H](NC(=O)CC[C@H](NC(=O)COCCOCCNC(=O)COCCOCCNC(=O)CC[C@H](NC(=O)CCCCCCCCCCCCCCC(=O)O)C(=O)O)C(=O)O)C(=O)O)C(=O)N[C@@H](Cc1c[nH]c2ccccc12)C(=O)N[C@@H](CC(C)C)C(=O)N[C@@H](CC(C)C)C(=O)N[C@@H](CO)C(=O)N[C@H](C(=O)O)[C@@H](C)O)C(C)C [Example 93, N^ε24-[(4S)-4-carboxy-4-[[(4S)-4-carboxy-4-[[2-[2-[2-[[2-[2-[2-[[(4S)-4-carboxy-4-(15-carboxypentadecanoylamino)butanoyl]amino]ethoxy]ethoxy]acetyl]amino]ethoxy]ethoxy]acetyl]amino]butanoyl]amino]butanoyl]-[Glu16,Lys24,Leu27,Ser28]-Glucagon] (H-HSQGTFTSDYSKYLDERRAQDFVK([γGlu-γGlu-AEEA-AEEA-γGlu-C16 diacid])WLLST-OH; N-terminus and C-terminus assumed) | 14 | 0.017 |
| CC(C)C[C@H](NC(=O)[C@H](Cc1c[nH]c2ccccc12)NC(=O)[C@H](CCCCNC(=O)COCCOCCNC(=O)CC[C@H](NC(=O)CC[C@H](NC(=O)COCCOCCNC(=O)CC[C@H](NC(=O)CCCCCCCCCCCCCCCCC(=O)O)C(=O)O)C(=O)O)C(=O)O)NC(=O)[C@@H](NC(=O)[C@H](Cc1ccccc1)NC(=O)[C@H](CC(=O)O)NC(=O)[C@H](CCC(N)=O)NC(=O)[C@H](C)NC(=O)[C@H](CCCNC(=N)N)NC(=O)[C@H](CCCNC(=N)N)NC(=O)[C@@H](NC(=O)[C@H](CC(=O)O)NC(=O)[C@H](CC(C)C)NC(=O)[C@H](Cc1ccc(O)cc1)NC(=O)[C@H](CCCCN)NC(=O)[C@H](CO)NC(=O)[C@H](Cc1ccc(O)cc1)NC(=O)[C@H](CC(=O)O)NC(=O)[C@H](CO)NC(=O)[C@@H](NC(=O)[C@H](Cc1ccccc1)NC(=O)[C@@H](NC(=O)CNC(=O)[C@H](CCC(N)=O)NC(=O)[C@H](CO)NC(=O)[C@@H](N)Cc1c[nH]cn1)[C@@H](C)O)[C@@H](C)O)[C@@H](C)O)C(C)C)C(=O)N[C@@H](CC(C)C)C(=O)N[C@@H](CO)C(=O)N[C@H](C(=O)O)[C@@H](C)O [Example 40, N^ε24-[2-[2-[2-[[(4S)-4-carboxy-4-[[(4S)-4-carboxy-4-[[2-[2-[2-[[(4S)-4-carboxy-4-(17-carboxyheptadecanoylamino)butanoyl]amino]ethoxy]ethoxy]acetyl]amino]butanoyl]amino]butanoyl]amino]ethoxy]ethoxy]acetyl]-[Thr16,Lys24,Leu27,Ser28]-Glucagon] | 7.5 | 0.078 |
| CC(C)C[C@H](NC(=O)[C@H](Cc1c[nH]c2ccccc12)NC(=O)[C@H](CCCCNC(=O)CC[C@H](NC(=O)CC[C@H](NC(=O)COCCOCCNC(=O)COCCOCCNC(=O)CC[C@H](NC(=O)CCCCCCCCCCCCCCCCC(=O)O)C(=O)O)C(=O)O)C(=O)O)NC(=O)[C@@H](NC(=O)[C@H](Cc1ccccc1)NC(=O)[C@H](CC(=O)O)NC(=O)[C@H](CCC(N)=O)NC(=O)[C@H](C)NC(=O)[C@H](CCCNC(=N)N)NC(=O)[C@H](CCCNC(=N)N)NC(=O)[C@@H](NC(=O)[C@H](CC(=O)O)NC(=O)[C@H](CC(C)C)NC(=O)[C@H](Cc1ccc(O)cc1)NC(=O)[C@H](CCCNC(=N)N)NC(=O)[C@H](CO)NC(=O)[C@H](Cc1ccc(O)cc1)NC(=O)[C@H](CC(=O)O)NC(=O)[C@H](CO)NC(=O)[C@@H](NC(=O)[C@H](Cc1ccccc1)NC(=O)[C@@H](NC(=O)CNC(=O)[C@H](CCC(N)=O)NC(=O)[C@H](CO)NC(=O)[C@@H](N)Cc1c[nH]cn1)[C@@H](C)O)[C@@H](C)O)C(C)C)C(C)C)C(=O)N[C@@H](CC(C)C)C(=O)N[C@@H](CO)C(=O)N[C@H](C(=O)O)[C@@H](C)O [Example 21, N^ε24-[(4S)-4-carboxy-4-[[(4S)-4-carboxy-4-[[2-[2-[2-[[2-[2-[2-[[(4S)-4-carboxy-4-(17-carboxyheptadecanoylamino)butanoyl]amino]ethoxy]ethoxy]acetyl]amino]ethoxy]ethoxy]acetyl]amino]butanoyl]amino]butanoyl]-[Arg^12,Val^16,Lys^24,Leu^27,Ser^28]-Glucagon] (H-HSQGTFTSDYSRYLDVRRAQDFVK([γGlu-γGlu-AEEA-AEEA-γGlu-C18 diacid])WLLST-OH) | 2.9 | 1.32 |
| CC(C)C[C@H](NC(=O)[C@H](Cc1ccc(O)cc1)NC(=O)[C@H](CCCCN)NC(=O)[C@H](CO)NC(=O)[C@H](Cc1ccc(O)cc1)NC(=O)[C@H](CC(=O)O)NC(=O)[C@H](CO)NC(=O)[C@@H](NC(=O)[C@H](Cc1ccccc1)NC(=O)[C@@H](NC(=O)CNC(=O)[C@H](CCC(N)=O)NC(=O)[C@H](CO)NC(=O)[C@@H](N)Cc1c[nH]cn1)[C@@H](C)O)[C@@H](C)O)C(=O)N[C@@H](CCC(=O)O)C(=O)N[C@@H](CO)C(=O)N[C@@H](CCCNC(=N)N)C(=O)N[C@@H](CCCNC(=N)N)C(=O)N[C@@H](C)C(=O)N[C@@H](CCC(N)=O)C(=O)N[C@@H](CCC(=O)O)C(=O)N[C@@H](Cc1ccccc1)C(=O)N[C@H](C(=O)N[C@@H](CCCCNC(=O)CC[C@H](NC(=O)CC[C@H](NC(=O)CC[C@H](NC(=O)CC[C@H](NC(=O)CCCCCCCCCCCCCCCCC(=O)O)C(=O)O)C(=O)O)C(=O)O)C(=O)O)C(=O)N[C@@H](Cc1c[nH]c2ccccc12)C(=O)N[C@@H](CC(C)C)C(=O)N[C@@H](CC(C)C)C(=O)N[C@@H](CO)C(=O)N[C@H](C(=O)O)[C@@H](C)O)C(C)C [Example 49, N^ε24-[(4S)-4-carboxy-4-[[(4S)-4-carboxy-4-[[(4S)-4-carboxy-4-[[(4S)-4-carboxy-4-(17-carboxyheptadecanoylamino)butanoyl]amino]butanoyl]amino]butanoyl]amino]butanoyl]-[Glu15,Glu21,Lys24,Leu27,Ser28]-Glucagon] (H-HSQGTFTSDYSKYLESRRAQEFVK([γGlu-γGlu-γGlu-γGlu-C18 diacid])WLLST-OH) | 6.8 | 0.169 |

— patent publication US9486506B2 (Novo Nordisk A/S, priority 2011, dated 2016)
